Data as given in patent US7776873B2, “Method for treating damage to gastric mucosa” (Yuhan Corporation, priority 2005, dated 2010).

What was measured:
[1] = tested on: indomethacin-induced gastric mucosal lesions; experiment: Preventive effect on in vivo indomethacin-induced gastric injury; set-up: species or system Sprague-Dawley male rats; conditions: rats, 10 mg/kg via oro-gastric tube prior to indomethacin 40 mg/kg for 12 hrs, FIG. 3A
Description: Six-week old specific-pathogen-free (SPF) Sprague-Dawley male rats (Charles River, Tokyo, Japan) were used for experiments. The rats were fed a sterilized commercial pellet diet (Biogenomics Co., Seoul, Korea), given sterile water ad libitum, and housed in air-conditioned biohazard room with a 12-h light:12-h dark cycle. The rats were divided into four groups; indomethacin-only treatment group, revaprazan-indomethacin treatment group, ethanol-only treatment group and revaprazan-ethanol treatment group. The rats were food-deprived 24 hours, and then administered with 10 mg/kg revaprazan suspended in 0.5% CMC (carboxymethylcellulose) via oro-gastric tube prior to exposure to either indomethacin (40 mg/kg for 12 hrs) or absolute ethanol (6 ml/kg for 1 hr). The stomachs of the rats belonging to the groups treated with indomethacin were excised and the degree of gastric mucosal lesions was observed (see FIG. 3A). Referring to FIG. 3A, in the indomethacin-only treatment group, increased hemorrhagic lesions in gastric mucosa were observed visually. […] Also, the stomachs of the rats belonging to the ethanol treatment groups were excised and the degree of gastric mucosal lesions was observed (see FIG. 3B).

[2] = tested on: heat-shock proteins, HO-1, HSP27, HSP70; experiment: Expression of heat-shock proteins in indomethacin-treated cells (Western blotting); format: cell-based, rat; conditions: RGM-1 cells, 5, 10 and 25 uM for 16 hours, then indomethacin 0.5 uM 16 hours, FIG. 7
Experimental: To measure expression of heat-shock proteins, HO-1, HSP27, HSP70, cells were pretreated with concentrations of 5, 10, and 25 μM revaprazan, and then treated with indomethacin (a NSAID, 0.5 μM).
The rat gastric mucosal (RGM-1, RIKEN cell bank, Japan) cells were seeded in culture dishes at 2×10^6 cells/100 mm^2 and cultured in DMEM-F12 (Gibco BRL, Grand Island, N.Y., U.S.A.), supplemented with 100 units/mL penicillin, 100 ug/mL streptomycin, and 10% FBS (Fetal Bovine Serum). RGM-1 cells were pretreated with revaprazan (5, 10, and 25 uM) and cultured 37° C. for 16 hours. The culture media were removed and the cells were washed three times with PBS (137 mM NaCl, 2.7 mM KCl, 10 mM Na2HPO4, and 2 mM KH2PO4). A solution of indomethacin in sterilized water was added to the cells to reach a final concentration of 0.5 uM, and the cells were incubated at 37° C. for 16 hours. After incubation, the cells were resuspended in a lysis buffer (20 mM Tris-Cl (pH 7.5), 150 mM NaCl, 1% Triton X-100, 1 mM EDTA, and protease inhibitor cocktail (Roche, Mannheim, Germany)). The suspension was sonicated for approximately 10 seconds, four times using the BIORUPTOR (Cosmo Bio, Koto-ku, Tokyo), and centrifuged at 4° C., 12000 rpm for 30 minutes. […]

[3] = tested on: indomethacin-induced gastric mucosal lesions; experiment: Preventive effect on NSAID-induced gastropathy; format: in vivo, Sprague Dawley male rats; conditions: rats, oro-gastric pretreatment (revaprazan 5, 10 mg/kg; rebamipide 30 mg/kg; omeprazole 5 mg/kg) prior to indomethacin 40 mg/kg for 12 hrs, FIG. 8
Experimental: Six-week old specific-pathogen-free (SPF) Sprague Dawley male rats (Charles River, Tokyo, Japan) were used for experiments. The rats were fed a sterilized commercial pellet diet (Biogenomics Co., Seoul, Korea), given sterile water ad libitum, and housed in air-conditioned biohazard room with a 12-h light:12-h dark cycle. The rats were food-deprived 24 hours, and then administered with 5, 10 mg/kg revaprazan, 30 mg/kg rebamipide and 5 mg/kg omeprazole suspended in 0.5% CMC (carboxymethylcellulose) via oro-gastric tube prior to exposure to indomethacin (40 mg/kg for 12 hrs). Phosphate-buffered saline was perfused into the gastric lumen of the rats to swell the stomachs. Then, the stomachs were opened by an incision along the greater curvature, and the total area of the gastric mucosal lesions was calculated to obtain the average size of the lesions.

## Cc1nc(Nc2ccc(F)cc2)nc(N2CCc3ccccc3C2C)c1C (stereo not drawn) [revaprazan, 5,6-dimethyl-2-(4-fluorophenylamino)-4-(1-methyl-1,2,3,4-tetrahydroisoquinolin-2-yl)pyrimidine]
[1]
  indomethacin-induced gastric injury: completely inhibited
[2]
  expression of heat-shock proteins: stimulating expression
[3]
  hemorrhagic gastric mucosal lesions after pretreatment: little hemorrhagic lesions are observed
